Assay results reported in patent US6124290A, “Polycyclic phthalazine compounds and their use” (Gruenenthal GmbH, priority 1996, dated 2000).
≈ marks a conversion by molar mass, not a printed value. Read-outs that look alike come from different tables or passages of the source. Each block holds one compound with its values, some of them ahead of it.

What was measured:
[1] = tested on: Staphylococcus aureus 108/83; test: MIC, micro-broth dilution test according to DIN 58 940 (Part 8); format: cell-based; details: for MIC: Staphylococcus aureus, read-out: MIC, Staphylococcus aureus 108/83
Description: (§1) The minimum inhibiting concentration (MIC) of the compounds was tested, in a micro-broth dilution test according to DIN 58 940 (Part 8), against the following bacterial strains: Staphylococcus aureus, strains 8325-4 (a sensitive Staphylococcus aureus strain which is representative of the species), NCTC 6571 (a sensitive international control strain), 108/83 (an "old" MRSA without quinolone-resistance), 134/94 (a "new" MRSA, with quinolone-resistance), Staphylococcus epidermidis CCM 2124 (a sensitive control strain), Enterococcus faecium 70/90 (a vancomycin-resistant strain) and 64/3 (a sensitive strain). The known substances vancomycin, teicoplanin and ciprofloxacin were used for comparison in the tests, even though they are structurally different.

[2] = tested on: Staphylococcus aureus 134/94; test: as above; format: cell-based; details: for MIC: Staphylococcus aureus, read-out: MIC, Staphylococcus aureus 134/94
Description: as §1

[3] = tested on: Staphylococcus aureus 8325-4; test: as above; format: cell-based
Description: as §1

[4] = background section; cited from earlier work
[5] = tested on: Enterococcus faecium 70/90; test: MIC, micro-broth dilution test according to DIN 58 940 (Part 8); format: cell-based; details: for MIC: Enterococcus faecium
Description: as §1

[6] = tested on: Staphylococcus aureus NCTC 6571; test: as above; format: cell-based; details: NCTC6571, sensitive international control strain
Description: as §1

[7] = tested on: Staphylococcus epidermidis CCM 2124; test: as above; format: cell-based; details: for MIC: Staphylococcus epidermidis
Description: as §1

[8] = tested on: Enterococcus faecium 64/3; test: as above; format: cell-based; details: for MIC: Enterococcus faecium
Description: as §1, with “strain).” for “strain). The known substances vancomycin, teicoplanin and ciprofloxacin were used for comparison in the tests, even though they are structurally different.”

[9] = "old" MRSA, without quinolone-resistance
[10] = "new" MRSA, with quinolone-resistance
[11] = 83254, sensitive Staphylococcus aureus strain, representative of the species, read-out: MIC, Staphylococcus aureus 8325-4
[12] = 70/90, vancomycin-resistant strain, read-out: MIC, Enterococcus faecium 70/90
[13] = CCM2124, sensitive control strain, read-out: MIC, Staphylococcus epidermidis CCM 2124
[14] = 64/3, sensitive strain, read-out: MIC, Enterococcus faecium 64/3
[15] = Staphylococcus aureus, 83254, read-out: MIC, Staphylococcus aureus 8325-4
[16] = CCM2124, read-out: MIC, Staphylococcus epidermidis CCM 2124

- MIC [1, 9]: 32 mg/L (≈ 55.9 µM)
- MIC [2, 10]: 16 mg/L (≈ 27.9 µM)
- MIC [3, 11]: 63 mg/L (≈ 110 µM)
Compound: CCC(C(=O)O)n1ncc2cc3c(c(O)c2c1=O)-c1c(O)c2c(c(OC)c1CC3)C(=O)c1c(cc(O)c(C)c1O)C2=O (racemic) [Substance 4]

Compound: COc1c2c(c(O)c3c1C(=O)c1c(cc(O)c(C)c1O)C3=O)-c1c(cc3c(c1O)C(=O)OC3O)CC2 (stereo not shown) [Madurahydroxylactone, 3,9,11,14,15-pentahydroxy-10-methyl-7-methoxy-1,8,13-trioxo-1,3,5,6,8,13-hexahydro-naphthaceno-[1,2-f]-benzoisofurane]
- biological efficacy [4]: unsatisfactory biological efficacy

- MIC [5, 12]: 500 mg/L (≈ 824 µM)
- MIC [1, 9]: 250 mg/L (≈ 412 µM)
- MIC [2, 10]: 500 mg/L (≈ 824 µM)
- MIC [3, 11]: 500 mg/L (≈ 824 µM)
- MIC [6]: < 125 mg/L
- MIC [7, 13]: < 125 mg/L
- MIC [8, 14]: 500 mg/L (≈ 824 µM)
Compound: COc1c2c(c(O)c3c1C(=O)c1c(cc(O)c(C)c1O)C3=O)-c1c(cc3cnn(-c4ccc(C(=O)O)cc4)c(=O)c3c1O)CC2 [Substance 1]

- MIC [5, 12]: 2000 mg/L (≈ 3670 µM)
- MIC [1, 9]: 63 mg/L (≈ 116 µM)
- MIC [2, 10]: 250 mg/L (≈ 459 µM)
- MIC [3, 11]: 63 mg/L (≈ 116 µM)
- MIC [6]: < 125 mg/L
- MIC [7, 13]: < 125 mg/L
- MIC [8, 14]: 500 mg/L (≈ 918 µM)
Compound: COc1c2c(c(O)c3c1C(=O)c1c(cc(O)c(C)c1O)C3=O)-c1c(cc3cnn(CC(=O)O)c(=O)c3c1O)CC2 [Substance 3, 10,12, 15,16-tetrahydroxy-8-methoxy-2-carboxynmethyl-11-methyl-1,9,14-trioxo-1,2,6,7,9,14-hexahydro-naphthaceno-[1,2-g]-phthalazine]

Compound: O=C(O)c1cn(C2CC2)c2cc(N3CCNCC3)c(F)cc2c1=O [ciprofloxacin]
- MIC ([5]; 70/90, read-out: MIC, Enterococcus faecium 70/90): 1000 mg/L (≈ 3020 µM)
- MIC ([1]; MRSA): 250 mg/L (≈ 754 µM)
- MIC ([2]; MRSA): 16000 mg/L (≈ 48300 µM)
- MIC [3, 15]: 250 mg/L (≈ 754 µM)
- MIC [7, 16]: 250 mg/L (≈ 754 µM)

Compound: CN[C@H](CC(C)C)C(=O)N[C@H]1C(=O)N[C@@H](CC(N)=O)C(=O)N[C@H]2C(=O)N[C@H]3C(=O)N[C@H](C(=O)N[C@H](C(=O)O)c4cc(O)cc(O)c4-c4cc3ccc4O)[C@H](O)c3ccc(c(Cl)c3)Oc3cc2cc(c3O[C@@H]2O[C@H](CO)[C@@H](O)[C@H](O)[C@H]2O[C@H]2C[C@](C)(N)[C@H](O)[C@H](C)O2)Oc2ccc(cc2Cl)[C@H]1O [vancomycin]
- MIC ([1]; MRSA): 500 mg/L (≈ 345 µM)
- MIC ([2]; MRSA): 500 mg/L (≈ 345 µM)
- MIC [3, 15]: 500 mg/L (≈ 345 µM)
- MIC [7, 16]: 500 mg/L (≈ 345 µM)
- MIC ([8]; 64/3, read-out: MIC, Enterococcus faecium 64/3): < 250 mg/L

Compound: teicoplanin
- MIC, Enterococcus faecium 70/90 ([5]; vancomycin-resistant strain): 256000 mg/L
- MIC, Staphylococcus aureus 108/83 [1, 9]: 500 mg/L
- MIC, Staphylococcus aureus 134/94 [2, 10]: 500 mg/L
- MIC, Staphylococcus aureus 8325-4 ([3]; sensitive Staphylococcus aureus strain, representative of the species): 500 mg/L
- MIC, Staphylococcus epidermidis CCM 2124 ([7]; sensitive control strain): 500 mg/L
- MIC, Enterococcus faecium 64/3 ([8]; sensitive strain): < 250 mg/L
